The values that follow come from patent publication US20130052654A1, “Amyloid Precursor Protein E2 Domain and Uses Thereof” (Leibniz Institute For Age Research - Fritz Lipmann …, priority 2011, published 2013).

“And” between values parts separate entries of the source, which are not always exact repeats. Identical values can stand only once. Like-named read-outs stand apart in the source and are kept apart here. Marks after values point to notes of the source that are not given here.

The target of series [1] is T1, APP-E2 (Homo sapiens, UniProt P05067).
T1 construct: APP-E2 comprising Ser295-Asp500 (numbering according to APP695); hexa-histidine tag (C, cleaved yes); made in house; host or cells: E. coli BL21(DE3)pRIL
The experiment in a line: Isothermal titration calorimetry (ITC) of metal binding to APP-E2. Particulars: for n1: ITC stoichiometry, first site; for dH1: Cu in Tris, Zn in Hepes, pH 7.3. The protocol: ITC was performed at the same conditions as the metal retention assays in a NANO ITC calorimeter (TA Instruments, USA) adding 0.4 mM CuCl2 in 6 μl injections or 0.4 mM ZnCl2 in 11 μl injections to the cell containing 40 μM protein. Blank enthalphies for titrations of metals in buffer were subtracted from peak integrals. Binding constants were calculated with the NanoAnalyze program (TA Instruments, USA) using a model for a single set of identical binding sites in the case of copper binding. In the case of zinc binding the enthalpic data were fitted to a binding model representing two sets of independent binding sites, accounting for 1 strong binding site and 3.3 weak binding sites (4.3 total Zn^2+ sites) per protein molecule (for further details see supplementary data). All titrations were performed in triplicate. The initially determined KDapp of the APP-E2/Cu complex had to be corrected for competition with the copper ligand Tris (Hatcher et al., 2008) and its pH-dependent protonation. The exact coordination chemistry of Cu^2+ by Tris is, unfortunately, not precisely known, e.g. tertiary Cu(Tris)2 and quinary Cu(Tris)4 complexes are described in the literature. However, all models agree about the formation of a binary Tris-Cu^2+ complex, described by a formation constant pK1(Tris) of ˜4. The corrected KD was calculated according to KD=KDapp(1+ cTris×10^pK^1(Tris)/(1+10^−pH×Ka))^−1 using pK1(Tris)=3.82 (Canepari et al., 1999) and pKa(Tris)=8.1.
The effect of excessive zinc to protein ratios was studied in ITC experiments in three repeating titrations into the same cell solution. Titration was performed in 20 mM Hepes/NaOH pH 7.3, 150 mM NaCl at 20° C., adding a 0.8 mM ZnCl2 solution in 3×22 injections to 40 μM APP-E2, resulting in a final Zn^2+/protein ratio of 22. The molar ratios for titration experiment 2 and 3 were calculated neglecting intermixture of cell volume and slight volume changes occurring after refill of the syringe. Blank enthalphies for titrations of metals in buffer were subtracted from peak integrals.

Series [2] deals with T1, APP-E2. The experiment in a line: CD-spectroscopy melting curves of APP-E2 at 222 nm. Particulars: 7.5 μM APP-E2, 10 μM metal; inflection point of CD melting curve at 222 nm. In kind it is binding. The protocol:
CD-data were collected on a J-710 spectropolarimeter (Jasco Corporation) in the same buffers used for ITC binding studies adding 7.5 μM APP-E2 and 10 μM zinc or copper. CD-signals were measured at 222 nm upon heating (1° C./min) of the samples from 20° C. to 90° C. The blank signals produced by the buffers at 20° C. were subtracted as constant values from the melting curves. Indicated melting points correspond to the inflection points of the melting curves determined from the peak of the 1st order derivative calculated using spectra analysis software (Jasco Corporation).

Series [3] deals with T1, APP-E2. The experiment in a line: Metal retention assay (ultrafiltration). The series is classed as binding. The conditions noted are these: 50 μM APP-E2, 75 μM metal, concentrated 8-fold. The protocol: 50 μM APP-E2 (without His-tag) and 75 μM CuCl2 in 50 mM Tris/HCl pH 7.3, 150 mM NaCl or 75 μM ZnCl2 in 20 mM Hepes/NaOH pH 7.3, 150 mM NaCl was concentrated 8-fold at 20° C. using Vivaspin 500 ultrafiltration devices with 5.000 MWCO PES membranes (Sartorius stedim biotech). Samples without protein, or containing 50 μM lysozyme instead of APP-E2, served as controls. Metal ions in the retenate were quantified by a spectrophotometric method (Sabel et al., 2010). Each experiment was performed in triplicate and the average ratio of the change in concentration relative to the starting concentration (c-c0/c0) was plotted.

Series [4] addresses T1, APP-E2. The experiment in a line: Limited proteolysis with Trypsin. Particulars: 40 μM metal, 20 μM protein, 0.5 μg/ml Trypsin. In kind it is biochemical. The protocol: Limited proteolysis was performed in 20 mM HEPES, 150 mM NaCl at pH 7.4 containing 0.5 μg/ml Trypsin (Calbiochem) and 20 μM purified protein (α-casein as control). Copper or zinc were supplemented at 40 μM to the Samples. Reactions were stopped after 30 and […] by addition of 10 mM PMSF and analyzed by SDS-PAGE. Protease cleavage sites were characterized by Edman sequencing (Procise 494A, Applied Biosystems, Foster City, Calif., USA). Limited proteolysis results shown were reproduced in three independent experiments.

A further series deals with T2, full length APP (Homo sapiens, UniProt P05067).
T2 construct: previously reported for full length APP (0.75 μM) (Bush et al., 1993)
T2 sequence (P05067 18-770, species assumed): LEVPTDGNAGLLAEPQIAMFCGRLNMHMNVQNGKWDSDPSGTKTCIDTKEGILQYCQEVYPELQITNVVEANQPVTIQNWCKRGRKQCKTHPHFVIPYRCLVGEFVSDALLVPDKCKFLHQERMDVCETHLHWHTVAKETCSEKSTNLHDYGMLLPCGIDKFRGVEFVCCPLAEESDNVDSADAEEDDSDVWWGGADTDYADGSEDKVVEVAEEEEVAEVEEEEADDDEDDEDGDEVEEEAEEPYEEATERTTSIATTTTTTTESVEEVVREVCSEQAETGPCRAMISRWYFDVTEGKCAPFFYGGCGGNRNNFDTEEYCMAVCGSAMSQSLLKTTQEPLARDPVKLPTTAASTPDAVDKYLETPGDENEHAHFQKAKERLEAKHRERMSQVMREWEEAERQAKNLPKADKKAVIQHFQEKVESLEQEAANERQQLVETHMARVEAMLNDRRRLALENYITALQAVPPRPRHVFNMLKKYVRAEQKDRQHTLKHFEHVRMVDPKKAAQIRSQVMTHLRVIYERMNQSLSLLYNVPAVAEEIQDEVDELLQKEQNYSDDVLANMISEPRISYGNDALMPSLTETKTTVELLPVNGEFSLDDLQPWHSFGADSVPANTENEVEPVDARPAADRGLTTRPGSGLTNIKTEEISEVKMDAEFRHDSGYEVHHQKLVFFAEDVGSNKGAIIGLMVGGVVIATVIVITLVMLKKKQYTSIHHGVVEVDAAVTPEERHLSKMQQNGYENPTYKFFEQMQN
The conditions noted are these: cited from earlier work.

The target in series [5] is T1, APP-E2. Briefly: Determination of total Zn2+ binding sites on APP-E2. How it is done: The protein was saturated with 10 mM ZnCl2 in 20 mM Hepes/NaOH pH 7.3, 150 mM NaCl resulting in quantitative precipitated of the protein. The precipitate was washed with buffer until a stable equilibrium ratio of zinc saturated protein in the liquid phase and the solid phase was reached. The concentration of Zn (Sabel et al., 2010) and protein (Bradford, 1976) were determined after each wash step in the liquid phase (supernatant) after […] centrifugation at 16,000 g. The ratio between [Zn^2+] and [APP-E2] at equilibrium conditions corresponds to the total number of zinc binding sites per protein molecule, which was determined to be 4.3+/−0.2 (FIG. 10B). Subtraction of one strong intra-molecular binding site yields the number of intermolecular binding sites of as 3.3.

Series [6] addresses T1, APP-E2. The experiment in a line: GPC and GPC coupled SLS, oligomerization state with heparin. In kind it is binding. The conditions noted are these: 50 μM APP-E2, 100 μM heparin; for MWSLS of APP-E2: GPC coupled SLS, absolute molecular weight; for MWrh of APP-E2: GPC, apparent molecular weight. The protocol:
Analytical GPC and SLS studies were performed in 150 mM NaCl, 10 mM Sodium phosphate buffer, pH 7.3, on a calibrated (MWGF70, Sigma) Superdex200 10/300 GL column (GE Healthcare) using 50 μM APP-E2. Where applicable, a ˜3.6 kDa heparin preparation (Reviparin-Sodium, Abott) was added at 100 μM to the protein and the buffer. SLS data were recorded using VE 3580 RI and 270 Dual detectors (Viscotek, USA) and analyzed using software provided by the manufacturer. Given data represent average values±standard deviation of three independent experiments.

Series [7] concerns the molecule itself. The experiment in a line: gel permeation chromatography and GPC-coupled static light scattering, without and with low molecular weight heparin (self-association test). The protocol: All intermolecular contacts identified in the crystals analysed with the PISA server (Krissinel and Henrick, 2007) result from crystal packing, evidenced by the calculated complexation significance scores (CSS) that are equal to 0. Consequently, the protomer contacts are predominantly stabilized by the intermolecular coordinated cadmium ions. […] To investigate this observation further, the apparent molecular weight was determined based on the hydrodynamic radius (MWᵣₕ) using gel permeation chromatography (GPC) as well as the absolute molecular weight (MWSLS) employing GPC coupled static light scattering (SLS; Supplementary Figure S2). […] The influence of heparin on the oligomerization state of the E2 domain, which was described to promote dimer formation (Lee et al., 2011), was tested.

As to `[Cu+2]` [Cu^2+, copper], the n1 at APP-E2 [1] is listed as 0.70 ± 0.03. This molecule also gave a dH1 on APP-E2 [1] (ITC) of -4.76 ± 0.22 kcal/mol. Also, the Kd is roughly 0.02 µM at APP-E2 [1] (intersection point with the ordinate, 15-75 mM Tris, read-out: KD from linear extrapolation of apparent KD as function of Tris concentration); no more than 0.013 µM on APP-E2 [1] (minimal model of a Cu2+-Tris 1:1 complex, upper (weakest) limit, listed as copper, read-out: KD corrected for Tris competition); less than 0.013 µM on APP-E2 [1] (minimal model of a Cu2+-Tris 1:1 complex, upper (weakest) limit, read-out: KD corrected for Tris competition); 0.01 µM at full length APP (Hesse et al., 1994, read-out: dissociation constant for full length APP (copper)). Further, the “melting temperature of APP-E2” value on APP-E2 [2] is 61.0±0.0 °C. Also, the “retention of metal ions upon APP-E2 concentration” value at APP-E2 [3] is listed as “accumulated in the retenate”. Also, the “effect on Trypsin cleavage of APP-E2” value on APP-E2 [4] is on record as “stabilizes especially fragment 1”.

For `[Zn+2]` [Zn^2+, zinc], the “exothermic zinc binding reaction with copper pre-saturated APP-E2” value on APP-E2 [1] (ITC competition) is reported as “completely missing”. Also, the n1 on APP-E2 [1] is reported as 0.7 ± 0.2. In addition, the Kd at APP-E2 [1] (ITC, 20 mM Hepes/NaOH pH 7.3, 150 mM NaCl, two sets of independent sites, strong site, listed as zinc, read-out: KD1, Zn-APP-E2) was no more than 3.9 µM; on APP-E2 [1] (ITC, 20 mM Hepes/NaOH pH 7.3, 150 mM NaCl, two sets of independent sites, strong site, read-out: KD1, Zn-APP-E2), 3.9 ± 1.5 µM; at APP-E2 [1] (ITC, Hepes pH 7.3, weak sites, not statistically significant in curve fit, listed as zinc, read-out: KD2, Zn-APP-E2), no more than 2600 µM; on APP-E2 [1] (ITC, Hepes pH 7.3, weak sites, not statistically significant in curve fit, read-out: KD2, Zn-APP-E2), 2600 µM; at full length APP (Bush et al., 1993, read-out: dissociation constant for full length APP (zinc)) it was 0.75 µM. The molecule also returned a dH1 at APP-E2 [1] (ITC) of -3.97 ± 0.14 kcal/mol. For the same molecule, the n2 on APP-E2 [1] (weak sites, determined independently and fixed during curve fit) is 3.3^b. The “melting temperature of APP-E2” value at APP-E2 [2] is 64.2±0.3 °C. Moreover, the “total number of zinc binding sites per protein molecule” value on APP-E2 [5] (ratio [Zn2+]/[APP-E2] at equilibrium after wash steps) is 4.3+/−0.2 and 4.3. Moreover, at APP-E2 [5] (total minus one strong intramolecular site), the “number of weak (intermolecular) zinc binding sites” value worked out at 3.3. For the same molecule, on APP-E2 [3], the “retention of metal ions upon APP-E2 concentration” value is reported as “accumulated in the retenate”. Further, the “effect on Trypsin cleavage of APP-E2” value on APP-E2 [4] is “Trypsin cleavage at Arg385 completely disappeared”.

Turning to Reviparin-Sodium [HP], at APP-E2 [6], the “MWSLS of APP-E2” value turned out to be 31.6 ± 0.2 kDa and the “MWrh of APP-E2” value was determined as 39.2 ± 0.4 kDa. Besides, on APP-E2 [6] (listed as Clivarin), the “MWSLS of APP-E2” value came out at 31.6 kDa and the “MWrh of APP-E2” value is recorded as 39.2 kDa.

B1: APP-E2 comprising Ser295-Asp500 (numbering according to APP695) (other)
chain: STPDAVDKYLETPGDENEHAHFQKAKERLEAKHRERMSQVMREWEEAERQAKNLPKADKKAVIQHFQEKVESLEQEAANERQQLVETHMARVEAMLNDRRRLALENYITALQAVPPRPRHVFNMLKKYVRAEQKDRQHTLKHFEHVRMVDPKKAAQIRSQVMTHLRVIYERMNQSLSLLYNVPAVAEEIQDEVDELLQKEQNYSDD
notes: The C-terminal His tag was cleaved for the biochemical studies; also called E2 domain; human APP-E2 domain; not shown: a few non-native C-terminal residues left after the hexa-histidine tag was cleaved off (factor Xa or V8 protease); their
On to B1, for which, in series [7], the binding result is reported as “no binding (tested: 50 µM APP-E2)”.
